Reference: patent US20240315993A1, “ANTIPARASITIC COMPOUNDS” (Intervet Inc., priority 2021, published 2024)
pEC50: −log10 of the molar value.

Tests used:
[1] = test system: Copepodids (juvenile sea lice stage of Lepeophtheirus salmonis); assay: Juvenile sea lice contact assay; conditions: ~24 h
Description: Copepodids (juvenile sea lice stage of Lepeophtheirus salmonis) were exposed to seawater spiked with declining concentrations of a test compound (dissolved in a DMSO sea-water mixture). Sea lice inhibition (% of dead+damaged copepodids) was assessed after approximately 24 hours of continuous exposure. The vitality of used parasites was confirmed in a negative (solvent) control group.

[2] = test system: juvenile soft ticks (Ornithodoros moubata); assay: Guinea pig - efficacy against argaside tick; assay type: in vivo; conditions: for duration of efficacy, subcutaneous compared with oral administration: 5 mg/kg, ticks and bed bugs
Description: (§1) Guinea pigs were locally co-infested (using an infestation device on a shaved skin area) with juvenile soft ticks (Ornithodoros moubata) and bed bugs (Cimex lectularius) before the treatment day (Day 0) to provide a baseline-negative control value. Guinea pigs were treated orally (by gavage) or subcutaneously at a dose of 5 mg/kg bodyweight of a test compound in a formulation of 10% DMF/Emulsifier+90% Aqua ad injectabilia.
(§2) Repeated local infestations with both parasites were performed at different time points after treatment. Within approximately 45 min after each infestation ten engorged ticks and ten engorged bed bugs were • collected and the percentage of dead and damaged parasites per species were • assessed approximately 24 hours following collection. The efficacy was • calculated as % of inhibition ‘killed+damaged’ parasites in a treated group in comparison to the baseline-negative control (using a modified Schneider Orelli's formula).
(§3) Results: Activity of the test compounds at different evaluation time-points (≥80% inhibition were found active): […]

[3] = test system: Mobile stages of sea lice (pre-adults, adults of Lepeophtheirus salmonis); assay: Adult sea lice contact assay; conditions: pre-adults/adults, assessed after ~1 and 24 h, read-out: EC50 (sea lice inhibition, dead+damaged)
Description: Mobile stages of sea lice (i.e., pre-adults, adults of Lepeophtheirus salmonis) were exposed to seawater spiked with declining concentrations of a test compound (dissolved in a PEG sea-water mixture). Sea lice inhibition (% of dead+damaged sea lice) was assessed after approximately 1 and 24 hours of continuous exposure in comparison to a negative (solvent) control group.

[4] = test system: Rhipicephalus appendiculatus; assay: Cattle - efficacy against multi-host ticks (Rhipicephalus appendiculatus); assay type: in vivo
Description: (§4) Cattle were treated subcutaneously or topically (pour-on) at a dose of 5 mg/kg bodyweight of a test compound (Day 0). As subcutaneous formulation NMP 60%/PEG300 40% was used, and as pour-on formulation DMA 92%/DEET 8% was used. Cattle of the negative control group received only the formulation excipients of both formulations (SC, pour-on).
(§5) Cattle were locally infested with 30 to 40 unfed adult ticks each of Rhipicephalus appendiculatus and Dermacenter variabilis (for both species sex ratio 1:1), by placing the ticks in an ear sleeve (R. appendiculatus) or a stockinet patch attached to the body side (D. variabilis) once before treatment, and at different time points after treatment. Free (i.e., non-attached ticks) were removed from ear sleeves/stockinet patches two days after each infestation and were excluded from the efficacy calculation.
(§6) Compounds with efficacy ≥80 percent were found active.

Dermacenter variabilis = assay: Cattle - efficacy against multi-host ticks (Dermacenter variabilis); assay type: in vivo
Description: as §4, §5, §6

[5] = test system: bed bugs (Cimex lectularius); assay: Guinea pig - efficacy against bed bug; assay type: in vivo
Description: as §1, §2, §3

Rhipicephalus microplus = assay: Cattle - efficacy against one-host tick; assay type: in vivo; conditions: 1 mg/kg topical (Compound 4: spray solution; others: DMA 92%/DEET 8% pour-on)
Description: Cattle were infested (whole body) with up to 3000 Rhipicephalus microplus larvae two or three times per week before and after the treatment day (Day 0). Cattle of treatment groups were treated subcutaneously or topically (spray or pour-on) at a dose of 1 mg/kg bodyweight of a test compound. As subcutaneous formulation either 2-pyrrolidon 50%/Tween 80 50% or NMP 60%/PEG300 40% was used. As topical formulation either a spray solution (DMF/Emulsifier 2%/tap water 98%) (Compound 4) or a DMA 92%/DEET 8% pour-on solution (all other compounds) or a pour-on solution containing Imwitor 988 (20%)+Miglyol 840 (QS) (Compound 453 and Compound 466) or a pour-on solution containing Miglyol 840 (QS) (Compound 453) was used. Cattle of the negative control group received only the formulation excipients of the respective administration route.
Fully engorged female ticks dropping from cattle were collected daily after treatment and counted in treatment and control groups. Efficacy was expressed using the standard ADEQ analysis method (ADEQ calculation in accordance with WAAVP guidelines for evaluating the efficacy of acaricides against ticks on ruminants; Veterinary parasitology 136 (2006) 29-43). Compounds with efficacy ≥80 percent were found active/effective. Onset of efficacy means the first Day with efficacy ≥80 percent. Duration of efficacy means the last Day with efficacy ≥80 percent.

Lepeophtheirus salmonis = assay: Salmon - in vivo efficacy against sea lice using gavage administration; conditions: 5 mg/kg once by gavage; for therapeutic efficacy against juvenile sea lice (% reduction vs control): day -3 infestation; for therapeutic efficacy against juvenile sea lice (% reduction vs control) / prophylactic efficacy at re-infestation on Day 17 (% reduction vs control): counted around day 28; for therapeutic efficacy against (pre-)adult sea lice (% reduction vs control): day -28 infestation, counted day 7
Description: Salmon (Salmo solar) were treated once orally by gavage at a dose of 5 mg/kg bodyweight per fish (Day 0). As formulation DMSO 5%/fish oil 95% was used. Salmon of the negative control group received only the excipients of the formulation.
The fish were infested with Lepeophtheirus salmonis copepodids twice before treatment (i.e., around day −28 and day −3) and once after treatment (i.e., day 17).
Around day 28 (end of animal phase), fish were euthanized, and lice on each fish were classified ((pre-)adult or juvenile stage) and counted. […] Efficacy is expressed as a % reduction of sea lice in treated groups versus a control group, using the Abbott's formula.

[6] = test system: Yellow Fever Mosquito (Aedes aegypti); conditions: about 1 day-old larvae, 96-well plate, graded after 3 days at room temperature; cited from earlier work
[7] = test system: Cabbage Looper (Trichoplusia ni); conditions: 50 μg/cm^2 on artificial diet, 128-well diet tray, second instar larvae, 5-7 days, average of eight wells; cited from earlier work
[8] = test system: Beet Armyworm (Spodoptera exigua); conditions: 50 μg/cm^2 on artificial diet, 128-well diet tray, second instar larvae, 5-7 days, average of eight wells; cited from earlier work
[9] = 5 mg/kg subcutaneous, after 7 days
[10] = 5 mg/kg subcutaneous, after 10 days
[11] = 5 mg/kg subcutaneous, therapeutic, Day 2
[12] = 5 mg/kg topical pour-on, re-infested after 7 days
[13] = 5 mg/kg topical pour-on, re-infested after 28 days
[14] = 5 mg/kg topical pour-on, therapeutic, Day 2
[15] = 5 mg/kg, both administration routes (topical, subcutaneous)

O=C(Nc1ccc(F)cc1F)c1cc(NC(=O)[C@H]2[C@H](c3cc(Cl)cc(Cl)c3)C2(Cl)Cl)ccc1F [Compound 447]
inhibition at 0.01 µM ([1]; Lepeophtheirus salmonis, 10 nM in seawater, read-out: Sea lice inhibition (% of dead+damaged copepodids)): 100%
activity against tick nymphs (≥80% inhibition, killed+damaged) ([2]; 5 mg/kg oral, Day 0): immediate activity
activity against tick nymphs (≥80% inhibition, killed+damaged) ([2]; 5 mg/kg oral, after 7 days): activity
activity against tick nymphs (≥80% inhibition, killed+damaged) ([2]; 5 mg/kg subcutaneous, Day 0): immediate activity
activity against tick nymphs (≥80% inhibition, killed+damaged) [2, 9]: activity
activity against tick nymphs (≥80% inhibition, killed+damaged) [2, 10]: activity
activity against tick nymphs (≥80% inhibition, killed+damaged) ([2]; 5 mg/kg subcutaneous, after 14 days): activity
activity against tick nymphs (≥80% inhibition, killed+damaged) ([2]; 5 mg/kg subcutaneous, after 17 days): activity
duration of efficacy, subcutaneous compared with oral administration [2]: longer duration of efficacy
pEC50 [3]: ≥ 8.00
efficacy ≥80 percent against Rhipicephalus appendiculatus ([4]; 5 mg/kg subcutaneous, re-infested after 21 days): prophylactic efficacy
efficacy ≥80 percent against Rhipicephalus appendiculatus [4, 11]: therapeutic efficacy
efficacy ≥80 percent against Rhipicephalus appendiculatus [4, 12]: prophylactic efficacy
efficacy ≥80 percent against Rhipicephalus appendiculatus ([4]; 5 mg/kg topical pour-on, re-infested after 14 days): prophylactic efficacy
efficacy ≥80 percent against Rhipicephalus appendiculatus [4, 13]: prophylactic efficacy
efficacy ≥80 percent against Rhipicephalus appendiculatus ([4]; 5 mg/kg topical pour-on, re-infested after 35 days): prophylactic efficacy
efficacy ≥80 percent against Rhipicephalus appendiculatus [4, 14]: therapeutic efficacy
effective in treating existing tick infestations [4, 15]: 100%
efficacy ≥80 percent against Dermacenter variabilis (Dermacenter variabilis; 5 mg/kg subcutaneous, re-infested after 7 days): prophylactic efficacy
efficacy ≥80 percent against Dermacenter variabilis (Dermacenter variabilis; 5 mg/kg subcutaneous, re-infested after 28 days): prophylactic efficacy
efficacy ≥80 percent against Dermacenter variabilis (Dermacenter variabilis; [11]): therapeutic efficacy
efficacy ≥80 percent against Dermacenter variabilis (Dermacenter variabilis; [12]): prophylactic efficacy
efficacy ≥80 percent against Dermacenter variabilis (Dermacenter variabilis; [13]): prophylactic efficacy
efficacy ≥80 percent against Dermacenter variabilis (Dermacenter variabilis; [14]): therapeutic efficacy
effective in treating existing tick infestations (Dermacenter variabilis; [15]): 100%
activity against bed bugs (≥80% inhibition, killed+damaged) ([5]; 5 mg/kg oral, Day 0): immediate activity
activity against bed bugs (≥80% inhibition, killed+damaged) ([5]; 5 mg/kg oral, after 7 days): activity
activity against bed bugs (≥80% inhibition, killed+damaged) ([5]; 5 mg/kg subcutaneous, Day 0): immediate activity
activity against bed bugs (≥80% inhibition, killed+damaged) [5, 9]: activity
activity against bed bugs (≥80% inhibition, killed+damaged) [5, 10]: activity
duration of efficacy (last Day with efficacy ≥80 percent) (Rhipicephalus microplus): ≥ 57 days
onset of efficacy (first Day with efficacy ≥80 percent) (Rhipicephalus microplus): 4 days

Cc1cc(NC(=O)c2cc(NC(=O)[C@H]3[C@H](c4cc(Cl)cc(Cl)c4)C3(Cl)Cl)ccc2Cl)ncc1F [Compound 454]
inhibition at 0.1 µM ([1]; Lepeophtheirus salmonis, 100 nM in seawater, read-out: Sea lice inhibition (% of dead+damaged copepodids)): 100%
activity against tick nymphs (≥80% inhibition, killed+damaged) ([2]; 5 mg/kg oral, Day 0): immediate activity
activity against tick nymphs (≥80% inhibition, killed+damaged) ([2]; 5 mg/kg subcutaneous, Day 0): immediate activity
activity against tick nymphs (≥80% inhibition, killed+damaged) [2, 9]: activity
activity against tick nymphs (≥80% inhibition, killed+damaged) [2, 10]: activity
duration of efficacy, subcutaneous compared with oral administration [2]: longer duration of efficacy
pEC50 [3]: ≥ 8.00
activity against bed bugs (≥80% inhibition, killed+damaged) ([5]; 5 mg/kg oral, Day 0): immediate activity
activity against bed bugs (≥80% inhibition, killed+damaged) ([5]; 5 mg/kg subcutaneous, Day 0): immediate activity

Cc1c(F)cc(NC(=O)C2C(c3cc(Cl)cc(Cl)c3)C2(Cl)Cl)cc1C(=O)Nc1ncc(F)cc1F (stereo not shown) [Compound 457]
therapeutic efficacy against juvenile sea lice (% reduction vs control) (Lepeophtheirus salmonis): 100%
therapeutic efficacy against (pre-)adult sea lice (% reduction vs control) (Lepeophtheirus salmonis): 80%

O=C(Nc1c(F)cccc1F)c1cc(NC(=O)C2C(c3cc(Cl)cc(Cl)c3)C2(Cl)Cl)ccc1Cl (stereo not shown) [Compound 458]
prophylactic efficacy at re-infestation on Day 17 (% reduction vs control) (Lepeophtheirus salmonis): 80%
therapeutic efficacy against juvenile sea lice (% reduction vs control) (Lepeophtheirus salmonis): 100%
therapeutic efficacy against (pre-)adult sea lice (% reduction vs control) (Lepeophtheirus salmonis): 100%

O=C(Nc1ncc(F)cc1F)c1cc(NC(=O)C2C(c3cc(Cl)cc(Cl)c3)C2(Cl)Cl)ccc1F (stereo not shown) [Compound 463]
Sea lice inhibition (% of dead+damaged copepodids) ([1]; 1 nM in seawater): 100%
therapeutic efficacy against juvenile sea lice (% reduction vs control) (Lepeophtheirus salmonis): 100%
therapeutic efficacy against (pre-)adult sea lice (% reduction vs control) (Lepeophtheirus salmonis): 100%

O=C(Nc1ncc(F)cc1F)c1cc(NC(=O)C2C(c3cc(Cl)cc(Cl)c3)C2(Cl)Cl)cc(F)c1Cl (stereo not shown) [Compound 464]
prophylactic efficacy at re-infestation on Day 17 (% reduction vs control) (Lepeophtheirus salmonis): 100%
therapeutic efficacy against juvenile sea lice (% reduction vs control) (Lepeophtheirus salmonis): 100%
therapeutic efficacy against (pre-)adult sea lice (% reduction vs control) (Lepeophtheirus salmonis): 100%

O=C(Nc1ncc(F)cc1F)c1cc(NC(=O)C2C(c3cc(F)c(F)c(F)c3)C2(Cl)Cl)ccc1Cl (stereo not shown) [Compound 478]
therapeutic efficacy against juvenile sea lice (% reduction vs control) (Lepeophtheirus salmonis): 80%
therapeutic efficacy against (pre-)adult sea lice (% reduction vs control) (Lepeophtheirus salmonis): 100%

O=C(Nc1ncc(F)cc1F)c1cc(NC(=O)C2C(c3cc(F)c(F)c(F)c3)C2(Cl)Cl)ccc1F (stereo not shown) [Compound 479]
therapeutic efficacy against juvenile sea lice (% reduction vs control) (Lepeophtheirus salmonis): 80%
therapeutic efficacy against (pre-)adult sea lice (% reduction vs control) (Lepeophtheirus salmonis): 100%

O=C(Nc1ncc(F)cc1F)c1c(F)ccc(NC(=O)C2C(c3cc(Cl)cc(Cl)c3)C2(Cl)Cl)c1F (stereo not shown) [Compound 480]
therapeutic efficacy against juvenile sea lice (% reduction vs control) (Lepeophtheirus salmonis): 100%
therapeutic efficacy against (pre-)adult sea lice (% reduction vs control) (Lepeophtheirus salmonis): 100%

Cc1c(NC(=O)c2cc(NC(=O)C3C(c4ccc(F)c(C(F)(F)F)c4)C3(Cl)Cl)ccc2Cl)cccc1NC(=O)C(F)(F)F (stereo not shown) [c125]
Test C: mortality of Yellow Fever Mosquito larvae, rating [6]: A (80-100)
Test B: percent mortality of Cabbage Looper (CL) larvae, rating [7]: A (50-100)
Test A: percent mortality of Beet Armyworm (BAW) larvae, rating [8]: A (50-100)
